In the NIST ThermoML archive (doi:10.1021/je0502804):
Numbers after ± are expanded uncertainties.

Details: Crystal; visual observation

Row | Compound | Normal melting temperature
1 | Clc1nc(Cl)c(Cl)c(Cl)c1Cl [pentachloropyridine] | 124.00 ± 0.5 °C
2 | Clc1cc(Cl)c(Cl)nc1Cl [2,3,5,6-tetrachloropyridine] | 90.00 ± 0.5 °C
